Drawing on US8097652B2, “AMPA receptor potentiators” (Eli Lilly and Company, priority 2006, dated 2012), this text covers EC50 for one compound.

Each structure is given as a SMILES string.

For this assay, the target named is T1, human iGluR4 (Homo sapiens, UniProt P48058).
T1 construct: expressed in transfected cells
Nature of the assay: Whole-cell voltage clamp electrophysiology of AMPA receptor potentiation in HEK293 cells expressing human iGluR4. The conditions noted are these: HEK293 cells stably expressing human iGluR4; voltage-clamped at −60 mV; 1 mM glutamate; fit to Hill equation; read-out: activity (EC50 value, potency of potentiation of the current evoked by glutamate). It is filed as cell-based. An excerpt:
HEK293 cells stably expressing human iGluR4 (obtained as described in European Patent Application Publication No. EP-A1-0583917) are used in the electrophysiological characterization of AMPA receptor potentiators. The extracellular recording solution contains (in mM): 140 NaCl, 5 KCl, 10 HEPES, 1 MgCl2, 2 CaCl2, 10 glucose, pH=7.4 with NaOH, 295 mOsm kg-1. The intracellular recording solution contains (in mM): 140 CsCl, 1 MgCl2, 10 HEPES, (N-[2-hydroxyethyl]piperazine-N1-[2-ethanesulfonic acid]) 10 EGTA (ethylene-bis(oxyethylene-nitrilo)tetraacetic acid), pH=7.2 with CsOH, 295 mOsm kg-1. With these solutions, recording pipettes have a resistance of 2-3 MΩ. […] Responses to 1 mM glutamate are then determined in the presence of test compound. […]
In order to determine the potency of the test compound, the concentration of the test compound, both in the bathing solution and co-applied with glutamate, is increased in half log units until the maximum effect is seen. […] Reversibility of test compound activity is determined by assessing control glutamate 1 mM responses. Once the control responses to the glutamate challenge are re-established, the potentiation of these responses by 100 μM cyclothiazide is determined by its inclusion in both the bathing solution and the glutamate-containing solution. In this manner, the efficacy of the test compound relative to that of cyclothiazide can be determined. […]

As a reminder, the EC50 is the midpoint of the concentration-response curve.

T1 sequence (P48058 22-902 limits assumed): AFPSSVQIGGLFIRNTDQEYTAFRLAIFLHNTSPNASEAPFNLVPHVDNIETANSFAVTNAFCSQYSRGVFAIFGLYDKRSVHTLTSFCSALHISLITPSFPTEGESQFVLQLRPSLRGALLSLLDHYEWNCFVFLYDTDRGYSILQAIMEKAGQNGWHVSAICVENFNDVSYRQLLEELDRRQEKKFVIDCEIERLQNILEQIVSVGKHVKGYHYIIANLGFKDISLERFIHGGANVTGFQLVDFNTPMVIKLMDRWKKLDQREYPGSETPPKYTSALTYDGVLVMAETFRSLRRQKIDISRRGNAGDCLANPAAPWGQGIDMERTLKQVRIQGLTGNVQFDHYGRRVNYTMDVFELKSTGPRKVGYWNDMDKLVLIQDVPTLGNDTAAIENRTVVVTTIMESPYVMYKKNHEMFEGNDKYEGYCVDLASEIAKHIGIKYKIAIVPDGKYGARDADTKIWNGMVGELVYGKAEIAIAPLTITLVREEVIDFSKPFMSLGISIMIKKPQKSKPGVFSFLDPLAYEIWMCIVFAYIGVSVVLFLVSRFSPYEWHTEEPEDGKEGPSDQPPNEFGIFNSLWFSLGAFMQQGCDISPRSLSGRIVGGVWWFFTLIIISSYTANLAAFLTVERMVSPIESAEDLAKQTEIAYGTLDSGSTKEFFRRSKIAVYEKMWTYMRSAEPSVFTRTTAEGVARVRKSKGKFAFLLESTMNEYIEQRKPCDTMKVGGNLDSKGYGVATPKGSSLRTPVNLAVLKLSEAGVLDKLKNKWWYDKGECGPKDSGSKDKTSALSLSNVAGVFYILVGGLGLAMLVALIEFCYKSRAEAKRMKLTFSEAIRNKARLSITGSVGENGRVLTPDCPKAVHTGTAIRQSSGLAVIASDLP

For the compound `CC(C)S(=O)(=O)NC[C@H](C)c1ccc(-c2ccc(C(=O)O)cc2C#N)cc1` [Example 1, 1-(R)-2-Cyano-4′-[1-methyl-2-(propane-2-sulfonylamino)-ethyl]-biphenyl-4-carboxylic acid], the concentration for a half-maximal effect (EC50) amounted to 188 ± 15.3 nM.
